In data set [1] the test system is NMRl mice. In words: formalin test, in-vivo test for determining the analgesic efficacy. More on the design: key to Mean deviation of the pain reaction compared to control (%) (n minutes after administration of formalin) 20-25′ / Mean deviation of the pain reaction compared to control (%) (n minutes after administration of formalin) 30-35′: (+): Intensified pain reaction. The note with it: for Mean deviation of the pain reaction compared to control (%) (n minutes after administration of formalin) 20-25′: 20-25′ after formalin; for Mean deviation of the pain reaction compared to control (%) (n minutes after administration of formalin) 30-35′: 30-35′ after formalin; for Mean deviation of the pain reaction compared to control (%) (n minutes after administration of formalin) 40-45′: 40-45′ after formalin; for average reduction of the pain reaction: after 30-45 minutes in the formalin test. The method, then: In each case, the maximum dosage selected for the concentration of azaspiro compounds was held, by a factor of about 2, below the toxic dose previously determined in the IRWIN test (Irwin, Psychopharmacologia 13 (1968) 222).
A reduction in the pain reaction is expressed in negative percentage figures.
The test was conducted as described by Wheeler-Aceto (Psychopharmacology 104, 1991, 35).
NMRl mice having a weight of 20-25 g were kept under controlled conditions (22±2° C., 40-70% relative humidity). 25 μl of a 5% […] solution was injected in the hind leg and the leg-licking frequency was then clocked for 5 minutes each at defined intervals (20, 30, 40 minutes).
(§1) First, the highest possible non-toxic concentration of the respective test substances that could be used was determined by an IRWIN test (Irwin, Psychopharmacologia 13, 1968, 222).
The test substances were dissolved in a physiological salt solution with 0.5% sodium carboxymethyl cellulose and were each measured in 1-3 dosages that had been applied intraperitoneally 10 minutes before administration of formalin. The comparative reference value was provided by a control excipient (10 ml/kg).
The test was performed in blind fashion on 10 mice per test series. The evaluation was based on a comparison of the treated animals with control excipients at three different times. […] Accordingly, an average 50% reduction of the pain reaction for the treated animals is obtained when in a defined period (e.g. 30-35′ after the formalin injection) the leg-licking duration (averaged over the 10 test animals) is reduced by 50% compared to the untreated animals. The statistical significance was determined using the Mann-Whitney U-test.

The nature of data set [2]: side effects above the maximum tolerable dosages (IRWIN test). It is filed as in vivo. The method, then: FIG. 1 and Table 1 show the reaction of test animals (10 mice each) 20-45 minutes after the intraperitoneal administration of selected compounds. In each case, the maximum dosage selected for the concentration of azaspiro compounds was held, by a factor of about 2, below the toxic dose previously determined in the IRWIN test (Irwin, Psychopharmacologia 13 (1968) 222).
as §1

Setting [3] is: 8 mg/kg i.p., Test series 1, n = 10 mice.
Where [4] appears, read: 8 mg/kg i.p., Test series 2, n = 10 mice.
Setting [5] is: 16 mg/kg i.p., Test series 1, n = 10 mice.
[6] abbreviates: 16 mg/kg i.p., Test series 2, n = 10 mice.
Where [7] appears, read: 32 mg/kg i.p., Test series 1, n = 10 mice.
[8] abbreviates: 32 mg/kg i.p., Test series 2, n = 10 mice.
[9] abbreviates: 4 mg/kg i.p., Test series 2, n = 10 mice.
Setting [10] is: 64 mg/kg i.p., Test series 1, n = 10 mice.
[11] abbreviates: 64 mg/kg i.p., Test series 2, n = 10 mice.

As for `O=C1CC2(CCCCC2)CN1` [GBP-L, 2-azaspiro[4.5]decan-3-on, reference compound], the “Mean deviation of the pain reaction compared to control (%) (n minutes after administration of formalin) 20-25′” value in data set [1] (setting [3]) is given as −58%; in data set [1] (setting [4]), “(+)”; in data set [1] (setting [5]), −74%; in data set [1] (setting [6]) it was “(+)”; in data set [1] (setting [7]), −64%; in data set [1] (setting [8]) it was “(+)”. For the same molecule, the “Mean deviation of the pain reaction compared to control (%) (n minutes after administration of formalin) 30-35′” value in data set [1] (setting [3]) is on record as −18%; in data set [1] (setting [4]), “(+)”; in data set [1] (setting [5]) it was −40%; in data set [1] (setting [6]), “(+)”; in data set [1] (setting [7]), −15%; in data set [1] (setting [8]) it was −10%. In addition, the “Mean deviation of the pain reaction compared to control (%) (n minutes after administration of formalin) 40-45′” value is reported as −15% in data set [1] (setting [3]), −41% in data set [1] (setting [5]) and −46% in data set [1] (setting [7]). The lethality entry in data set [2] is reported as “significant lethality rate”.
Turning to `S=C1CC2(CCCCC2)CN1` [SPM 0013, 2-azaspiro[4.5]decane-3-thion], in data set [1] (32 mg/kg i.p., n = 10 mice), the “Mean deviation of the pain reaction compared to control (%) (n minutes after administration of formalin) 20-25′” value was −99%, the “Mean deviation of the pain reaction compared to control (%) (n minutes after administration of formalin) 30-35′” value was −32% and the “Mean deviation of the pain reaction compared to control (%) (n minutes after administration of formalin) 40-45′” value is −4%.
Regarding `C1CCC2(CC1)CCNC2` [SPM 0019, 2-azaspiro[4.5]decane], in data set [1] (32 mg/kg i.p., n = 10 mice), the “Mean deviation of the pain reaction compared to control (%) (n minutes after administration of formalin) 20-25′” value was −67%, the “Mean deviation of the pain reaction compared to control (%) (n minutes after administration of formalin) 30-35′” value is listed as −21% and the “Mean deviation of the pain reaction compared to control (%) (n minutes after administration of formalin) 40-45′” value is on record as −26%.
On to `ON=C1CC2(CCCCC2)CN1` [SPM 6850, N-(2-azaspiro[4.5]decane-3)-oxim], for which, in data set [1] (32 mg/kg i.p., n = 10 mice), the “Mean deviation of the pain reaction compared to control (%) (n minutes after administration of formalin) 20-25′” value was “(+)”, the “Mean deviation of the pain reaction compared to control (%) (n minutes after administration of formalin) 30-35′” value is −50% and the “Mean deviation of the pain reaction compared to control (%) (n minutes after administration of formalin) 40-45′” value is −38%. Also, the “average reduction of the pain reaction” value in data set [1] (32 mg/kg per Table 1) is reported as 44%.
As a reminder, the melting point is the temperature, or range, at which the solid turns liquid. For `S=C1CC2(CCCCCC2)CN1` [SPM 6868, 2-azaspiro[4.6]undecane-3-thion], the melting point was determined as 132.3 °C. In data set [1] (setting [9]), the “Mean deviation of the pain reaction compared to control (%) (n minutes after administration of formalin) 20-25′” value was −53%, the “Mean deviation of the pain reaction compared to control (%) (n minutes after administration of formalin) 30-35′” value is reported as −7% and the “Mean deviation of the pain reaction compared to control (%) (n minutes after administration of formalin) 40-45′” value is −16%. Also, in data set [1] (setting [5]), the “Mean deviation of the pain reaction compared to control (%) (n minutes after administration of formalin) 20-25′” value is −62%, the “Mean deviation of the pain reaction compared to control (%) (n minutes after administration of formalin) 30-35′” value is reported as −29% and the “Mean deviation of the pain reaction compared to control (%) (n minutes after administration of formalin) 40-45′” value is on record as −49%. Moreover, in data set [1] (setting [6]), the “Mean deviation of the pain reaction compared to control (%) (n minutes after administration of formalin) 20-25′” value is listed as −42%, the “Mean deviation of the pain reaction compared to control (%) (n minutes after administration of formalin) 30-35′” value is recorded as −30% and the “Mean deviation of the pain reaction compared to control (%) (n minutes after administration of formalin) 40-45′” value is listed as −31%. In addition, in data set [1] (setting [7]), the “Mean deviation of the pain reaction compared to control (%) (n minutes after administration of formalin) 20-25′” value was −83%, the “Mean deviation of the pain reaction compared to control (%) (n minutes after administration of formalin) 30-35′” value is listed as −0% and the “Mean deviation of the pain reaction compared to control (%) (n minutes after administration of formalin) 40-45′” value is −24%. In data set [1] (setting [10]), the “Mean deviation of the pain reaction compared to control (%) (n minutes after administration of formalin) 20-25′” value is −89%, the “Mean deviation of the pain reaction compared to control (%) (n minutes after administration of formalin) 30-35′” value is recorded as −67% and the “Mean deviation of the pain reaction compared to control (%) (n minutes after administration of formalin) 40-45′” value is on record as −83%. For the same molecule, in data set [1] (setting [11]), the “Mean deviation of the pain reaction compared to control (%) (n minutes after administration of formalin) 20-25′” value is on record as −100%, the “Mean deviation of the pain reaction compared to control (%) (n minutes after administration of formalin) 30-35′” value is −98% and the “Mean deviation of the pain reaction compared to control (%) (n minutes after administration of formalin) 40-45′” value is on record as −93%.
Regarding `ON=C1CC2(CCCCCC2)CN1` [SPM 6873, N-(2-azaspiro[4.6]undecane-3)-oxim], in data set [1] (16 mg/kg i.p., n = 10 mice), the “Mean deviation of the pain reaction compared to control (%) (n minutes after administration of formalin) 20-25′” value was “(+)”, the “Mean deviation of the pain reaction compared to control (%) (n minutes after administration of formalin) 30-35′” value is recorded as −35% and the “Mean deviation of the pain reaction compared to control (%) (n minutes after administration of formalin) 40-45′” value is reported as −38%. Moreover, in data set [1] (16 mg/kg per Table 1), the “average reduction of the pain reaction” value is reported as 36.5%.

Values taken from US20050288351A1, “Azaspiro compounds for the treatment of pain” (Schwarz Pharma AG, priority 2002, published 2005).
